Measurements taken from patent US10526316B2, “Quinoxaline and pyridopyrazine derivatives as PI3Kβ inhibitors” (Janssen Pharmaceutica NV, priority 2015, dated 2020).
Where two headings read alike, the source gives them in different places.

What was measured:
PI3Kβ = target: T1, PI3Kβ (Homo sapiens, UniProt P42338); assay: Enzyme binding assay (KINOMEscan, DiscoveRx)
T1 construct: purchased DiscoveRx Corporation, San Diego (contract service, KINOMEscan)
Method: (§1) Enzyme Binding Assays (KINOMEscan®)
Kinase enzyme binding affinities of compounds disclosed herein were determined using the KINOMEscan technology performed by DiscoveRx Corporation, San Diego, Calif., USA (www.kinomescan.com). Table A reports the obtained Kd values (nM), with the Kd being the inhibitor binding constant: […]

PI3Kδ = target: T2, PI3Kδ (Homo sapiens, UniProt O00329); assay: Enzyme binding assay (KINOMEscan, DiscoveRx); settings: PIK3Cδ_h
T2 construct: purchased DiscoveRx Corporation, San Diego (contract service, KINOMEscan)
T2 sequence (O00329 1-1044): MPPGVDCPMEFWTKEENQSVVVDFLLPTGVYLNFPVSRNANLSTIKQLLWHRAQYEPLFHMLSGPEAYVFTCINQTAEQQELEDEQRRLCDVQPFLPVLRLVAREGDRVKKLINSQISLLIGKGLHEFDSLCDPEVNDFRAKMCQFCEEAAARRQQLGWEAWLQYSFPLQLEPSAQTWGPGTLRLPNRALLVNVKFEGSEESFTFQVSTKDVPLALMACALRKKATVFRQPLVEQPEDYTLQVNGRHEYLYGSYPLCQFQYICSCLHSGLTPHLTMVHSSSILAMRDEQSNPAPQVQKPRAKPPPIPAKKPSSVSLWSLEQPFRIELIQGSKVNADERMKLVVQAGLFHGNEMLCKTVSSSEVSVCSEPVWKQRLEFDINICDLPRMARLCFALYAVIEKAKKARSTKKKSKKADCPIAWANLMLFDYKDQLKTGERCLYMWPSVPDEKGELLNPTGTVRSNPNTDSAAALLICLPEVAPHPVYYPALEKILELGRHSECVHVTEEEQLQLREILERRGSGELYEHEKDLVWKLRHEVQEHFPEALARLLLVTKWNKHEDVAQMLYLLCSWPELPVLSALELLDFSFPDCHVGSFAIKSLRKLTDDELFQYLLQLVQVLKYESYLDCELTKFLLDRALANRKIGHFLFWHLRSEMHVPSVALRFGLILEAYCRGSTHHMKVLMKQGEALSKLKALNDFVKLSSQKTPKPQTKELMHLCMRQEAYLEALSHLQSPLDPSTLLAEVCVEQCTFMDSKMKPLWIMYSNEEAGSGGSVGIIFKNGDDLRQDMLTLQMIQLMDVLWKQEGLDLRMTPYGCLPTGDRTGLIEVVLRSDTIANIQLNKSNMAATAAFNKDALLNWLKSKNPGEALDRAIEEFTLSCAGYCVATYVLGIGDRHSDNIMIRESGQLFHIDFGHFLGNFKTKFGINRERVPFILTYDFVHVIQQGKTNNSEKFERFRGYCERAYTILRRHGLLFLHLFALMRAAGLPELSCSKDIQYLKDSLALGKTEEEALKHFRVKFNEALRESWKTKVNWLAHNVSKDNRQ
Method: as §1
(§2) Kinase enzyme binding affinities of compounds disclosed herein were determined using the KINOMEscan technology performed by DiscoveRx Corporation, San Diego, Calif., USA (www.kinomescan.com).

[1] = tested on: Akt phosphorylated at Thr308 in PC-3 cells; assay: Cellular assay: phosphorylation of Akt at Thr308 in PC-3 cells (MSD ELISA); type: cell-based; settings: PC-3 cells, 60 min compound incubation, MSD ELISA, read-out: IC50 pAkt_Thr308
Method: (§3) Cellular activity of PI3KP inhibitors was determined by quantifying the phosphorylation of Akt in PC-3 cells. Akt phosphorylated at Ser473 and Thr308 were measured using an enzyme-linked immunosorbent assay (ELISA; Meso Scale Discovery (MSD), Gaithersburg. Md.) and specific primary antibodies from MSD.
(§4) On day 2, compound or DMSO (0.3%) was added and cells were further incubated for 60 min at 37° C. 5% CO2 in a total volume of 100 μl of medium.
(§5) The phosphoprotein assay was executed according to vendor instructions in the Phospho-Akt (Ser473) Assay Whole Cell Lysate Kit (MSD # K15100D-3) and the Phospho-Akt (Thr308) Assay Whole Cell Lysate Kit (MSD # K151DYD-3) using the lysis, blocking and wash buffer provided.
(§6) Briefly, at the end of the cell treatment period, media were removed by aspiration and adherent cells were lysed in 50 μl ice-cold lysis buffer. MSD plates are supplied pre-coated with capture antibodies for Phospho-Akt (Ser473 and Thr308). After blocking, lysates from tissue culture plates were added and plates were washed. Then, a solution containing the detection antibody (anti-total Akt conjugated with an electrochemiluminescent compound-MSD Sulfo-tag label) was added. The signals were detected using an MSD SECTOR Imager 6000 and are proportional to the phospho-Akt titres.
(§7) Data were processed. […] From these concentration-response curves, the IC50 values were calculated. Five concentrations were used for curve fitting.

kinase enzymes [2] = target: T3, kinase enzymes (Homo sapiens, UniProt P42336); assay: Enzyme binding assay (KINOMEscan, DiscoveRx), further kinases of Table A; settings: PIK3Cα_h
T3 construct: purchased DiscoveRx Corporation, San Diego (contract service, KINOMEscan)
Method: as §1, §2

kinase enzymes [3] = target: T4, kinase enzymes (Homo sapiens, UniProt P48736); assay: as above; settings: PIK3Cγ_h
T4 construct: purchased DiscoveRx Corporation, San Diego (contract service, KINOMEscan)
Method: as §1, §2

kinase enzymes [4] = target: T5, kinase enzymes (Homo sapiens, UniProt P42345); assay: as above; settings: MTOR_h
T5 construct: purchased DiscoveRx Corporation, San Diego (contract service, KINOMEscan)
Method: as §1, §2

[5] = tested on: Akt phosphorylated at Ser473 in PC-3 cells; assay: Cellular assay: phosphorylation of Akt at Ser473 in PC-3 cells (MSD ELISA); type: cell-based; settings: PC-3 cells, 60 min compound incubation, MSD ELISA, read-out: IC50 pAkt_S473
Method: as §3, §4, §5, §6, §7

[6] = PIK3Cβ_h, read-out: Kd PIK3Cβ_h

T1 sequence (P42338 whole entry): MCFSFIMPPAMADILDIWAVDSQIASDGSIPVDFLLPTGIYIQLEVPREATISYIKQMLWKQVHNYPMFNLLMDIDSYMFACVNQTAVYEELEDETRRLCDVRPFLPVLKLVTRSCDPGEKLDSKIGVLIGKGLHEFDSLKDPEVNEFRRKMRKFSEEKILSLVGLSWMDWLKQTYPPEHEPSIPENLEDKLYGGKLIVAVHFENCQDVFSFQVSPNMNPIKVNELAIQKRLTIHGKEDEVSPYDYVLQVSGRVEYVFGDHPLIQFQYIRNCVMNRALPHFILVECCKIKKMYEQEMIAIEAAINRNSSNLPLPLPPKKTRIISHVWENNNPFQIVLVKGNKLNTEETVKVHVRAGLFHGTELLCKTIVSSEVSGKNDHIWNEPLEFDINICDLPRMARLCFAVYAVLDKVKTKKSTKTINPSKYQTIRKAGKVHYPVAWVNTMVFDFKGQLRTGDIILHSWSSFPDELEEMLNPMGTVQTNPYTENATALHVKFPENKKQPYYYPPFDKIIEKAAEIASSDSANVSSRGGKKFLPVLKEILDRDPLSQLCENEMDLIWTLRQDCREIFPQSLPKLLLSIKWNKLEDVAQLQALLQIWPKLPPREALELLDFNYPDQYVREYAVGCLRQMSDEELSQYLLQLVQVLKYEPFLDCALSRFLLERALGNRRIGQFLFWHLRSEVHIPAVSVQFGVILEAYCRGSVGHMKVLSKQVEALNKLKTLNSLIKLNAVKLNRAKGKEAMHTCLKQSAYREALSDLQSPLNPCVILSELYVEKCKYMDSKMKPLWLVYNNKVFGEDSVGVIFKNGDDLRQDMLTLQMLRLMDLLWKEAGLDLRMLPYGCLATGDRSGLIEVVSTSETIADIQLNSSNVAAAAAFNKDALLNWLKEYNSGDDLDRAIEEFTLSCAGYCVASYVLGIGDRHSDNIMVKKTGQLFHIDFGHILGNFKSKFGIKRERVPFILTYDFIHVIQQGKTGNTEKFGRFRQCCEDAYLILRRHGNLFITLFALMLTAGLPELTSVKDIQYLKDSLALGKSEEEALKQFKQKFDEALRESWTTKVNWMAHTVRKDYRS
T3 sequence (P42336 whole entry): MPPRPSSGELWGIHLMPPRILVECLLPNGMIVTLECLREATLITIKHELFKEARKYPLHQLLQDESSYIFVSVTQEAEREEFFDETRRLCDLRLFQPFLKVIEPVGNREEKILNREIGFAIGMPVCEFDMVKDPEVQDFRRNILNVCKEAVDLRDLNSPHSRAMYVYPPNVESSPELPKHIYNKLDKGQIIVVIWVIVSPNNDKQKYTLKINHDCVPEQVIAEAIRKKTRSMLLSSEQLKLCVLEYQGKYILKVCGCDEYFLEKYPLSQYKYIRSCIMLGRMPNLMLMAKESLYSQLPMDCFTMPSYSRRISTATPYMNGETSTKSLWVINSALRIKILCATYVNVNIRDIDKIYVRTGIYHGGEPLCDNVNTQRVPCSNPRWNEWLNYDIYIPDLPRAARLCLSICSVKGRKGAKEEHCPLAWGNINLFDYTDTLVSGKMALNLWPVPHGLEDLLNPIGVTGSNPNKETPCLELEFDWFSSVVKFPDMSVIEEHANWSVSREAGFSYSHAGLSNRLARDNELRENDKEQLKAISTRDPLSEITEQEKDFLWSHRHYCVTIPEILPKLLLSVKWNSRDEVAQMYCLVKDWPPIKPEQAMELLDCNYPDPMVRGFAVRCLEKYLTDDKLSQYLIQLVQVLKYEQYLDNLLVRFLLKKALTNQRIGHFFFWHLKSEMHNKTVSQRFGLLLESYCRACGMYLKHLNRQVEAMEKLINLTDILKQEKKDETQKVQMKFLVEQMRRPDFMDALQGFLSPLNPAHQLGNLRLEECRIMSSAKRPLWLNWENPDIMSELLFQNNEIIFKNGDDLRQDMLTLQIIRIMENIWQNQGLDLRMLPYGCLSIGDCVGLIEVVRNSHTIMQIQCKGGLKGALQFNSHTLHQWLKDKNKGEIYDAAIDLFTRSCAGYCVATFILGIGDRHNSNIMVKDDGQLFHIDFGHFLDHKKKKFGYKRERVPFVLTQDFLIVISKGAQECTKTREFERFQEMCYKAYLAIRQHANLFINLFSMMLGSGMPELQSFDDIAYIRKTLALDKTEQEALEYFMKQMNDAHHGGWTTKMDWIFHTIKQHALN
T4 sequence (P48736 whole entry): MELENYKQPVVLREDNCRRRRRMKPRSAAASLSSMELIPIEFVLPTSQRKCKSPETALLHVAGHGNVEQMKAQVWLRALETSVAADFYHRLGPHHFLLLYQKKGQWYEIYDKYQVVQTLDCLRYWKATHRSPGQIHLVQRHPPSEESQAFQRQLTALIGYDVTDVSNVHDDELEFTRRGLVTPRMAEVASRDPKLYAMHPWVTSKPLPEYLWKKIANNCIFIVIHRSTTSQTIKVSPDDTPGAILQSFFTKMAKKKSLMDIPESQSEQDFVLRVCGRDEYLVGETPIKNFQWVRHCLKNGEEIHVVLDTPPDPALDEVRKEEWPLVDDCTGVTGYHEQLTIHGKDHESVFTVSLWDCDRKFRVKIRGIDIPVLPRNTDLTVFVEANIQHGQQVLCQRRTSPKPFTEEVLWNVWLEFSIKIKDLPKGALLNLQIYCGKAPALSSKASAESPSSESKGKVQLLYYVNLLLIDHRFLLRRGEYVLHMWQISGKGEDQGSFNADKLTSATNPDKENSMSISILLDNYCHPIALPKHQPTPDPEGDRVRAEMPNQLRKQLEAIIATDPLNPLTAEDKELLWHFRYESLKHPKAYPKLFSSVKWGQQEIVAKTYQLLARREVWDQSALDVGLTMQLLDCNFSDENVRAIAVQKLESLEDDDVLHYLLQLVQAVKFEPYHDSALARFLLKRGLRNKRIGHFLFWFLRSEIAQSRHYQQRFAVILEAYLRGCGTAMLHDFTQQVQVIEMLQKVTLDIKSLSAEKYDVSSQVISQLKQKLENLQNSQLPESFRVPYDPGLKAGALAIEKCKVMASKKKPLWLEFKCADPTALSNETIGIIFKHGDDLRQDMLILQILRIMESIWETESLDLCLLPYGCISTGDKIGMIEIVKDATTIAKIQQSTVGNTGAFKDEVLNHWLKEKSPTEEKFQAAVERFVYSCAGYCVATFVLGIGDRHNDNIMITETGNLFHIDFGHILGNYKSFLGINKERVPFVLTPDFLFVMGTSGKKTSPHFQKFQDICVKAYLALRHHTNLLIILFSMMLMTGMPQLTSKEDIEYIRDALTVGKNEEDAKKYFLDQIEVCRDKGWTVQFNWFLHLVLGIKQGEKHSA

| SMILES | Kd (PI3Kβ; [6]) [nM] | Kd (PI3Kδ) [nM] | IC50 [1] [nM] | Kd (kinase enzymes [2]) [nM] | Kd (kinase enzymes [3]) [nM] | Kd (kinase enzymes [4]) [nM] | IC50 [5] [nM] | IC50 ([1]; Homo sapiens, PC-3, 1 h) [nM] | IC50 ([5]; Homo sapiens, PC-3, 1 h) [nM] | Kd (PI3Kβ; read-out: Kd PIK3Cβ_h) [nM] | Kd (PI3Kβ; Kd PIK3Cβ_h) [nM] |
| --- | --- | --- | --- | --- | --- | --- | --- | --- | --- | --- | --- |
| OC(CN1CCC1)c1cc(C2CCCN2c2cc(F)cc(F)c2)c2nc(N3CCOCC3)cnc2c1 (single isomer, unassigned) [Compound 95] | 0.5 | 178 | 18 | 295 | 1100 | > 30200 | 34 |  |  |  |  |
| CN[C@H]1CCN(C(=O)c2cc(C(C)Nc3cc(F)c(F)c(F)c3)c3nc(N4CCOCC4)cnc3c2)C1 (single isomer, unassigned) [Compound 297a] | 26 | 6310 | 204 | 17000 | 15100 | > 30200 | 200 |  |  |  |  |
| Cc1c(F)cccc1CN(C)c1cc(C(=O)N(C)CCNC(C)C)cc2ncc(N3CCOCC3)nc12 [Compound 386] | 15 | 692 |  | 3240 | 14800 | 24500 |  | > 513 | > 513 |  |  |
| CC(Nc1cc(F)cc(F)c1)c1cc(C(=O)N2CCC(NCC(F)(F)F)C2)cc2ncc(N3CCOCC3)nc12 (centres unmarked) [Compound 217] | 4 | 1290 |  | 2140 | 24000 | > 30200 |  | 49 | 79 |  |  |
| CN1CCN(C(=O)c2cc(C3CCCN3c3cc(F)cc(F)c3)c3nc(N4CCOCC4)cnc3c2)CC1 (single isomer, unassigned) [Compound 58] | 9 | 912 | 295 | 2000 | 18600 | > 30200 | > 513 |  |  |  |  |
| CC(Nc1cc(F)cc(F)c1)c1cc(C(=O)NS(=O)(=O)C2CC2)cc2ncc(N3CCOCC3)nc12 (centres unmarked) [Compound 218] | 5 | 1170 |  | 537 | 3090 | 3310 |  | > 513 | > 513 |  |  |
| CNCCNC(=O)c1cc(C(C)Oc2ccc(Cl)c(F)c2)c2nc(N3CCOCC3)cnc2c1 (single isomer, unassigned) [Compound 380b] | 5 | 1200 |  | 3800 | 8910 | 18600 |  | > 513 | > 513 |  |  |
| CN(C)CCNC(=O)c1cc(NCc2cc(F)cc(F)c2)c2nc(N3CCOCC3)cnc2c1 [Compound 384] | 1 | 575 |  | 2690 | 15800 | 20000 |  | 7 | 20 |  |  |
| CN(C)C(=O)c1cc(N2CCC[C@@H]2c2cc(F)cc(F)c2)c2nc(C3=CCOCC3)cnc2c1 [Compound 398] | 257 | 5750 |  | 10700 | > 30200 | > 30200 |  | > 513 | > 513 |  |  |
| CN(C)C(=O)c1cc([C@@H]2CCCN2c2cc(F)cc(F)c2)c2nc(N3CCOCC3)cnc2c1 [Compound 2] | 1090 | 16400 |  | 12300 |  |  |  | > 513 | > 513 |  |  |
| COC1CN(Cc2cc(C(C)Nc3cc(F)cc(F)c3)c3nc(N4CCOCC4)cnc3c2)CC1OC (single isomer, unassigned) [Compound 207] | 6 | 891 | 105 | 5250 | 16200 | 7940 | 372 |  |  |  |  |
| CC(C)NCCN(C)C(=O)c1cc(NCc2cc(F)cc(F)c2)c2nc(N3CCOCC3)cnc2c1 [Compound 389] | 5 | 2190 |  | 3160 | > 30200 | > 30200 |  | 28 | 39 |  |  |
| CC(Nc1ccc(F)c(F)c1)c1cc(C(=O)NCCN(C)C)cc2ncc(N3CCOCC3)nc12 (centres unmarked) [Compound 299b] | 60 | 5250 | > 513 | 13200 | 19500 | > 30200 | > 513 |  |  |  |  |
| C[C@@H](Nc1cc(F)cc(F)c1)c1cc(C(=O)NCCN(C)C)cc2ncc(N3CCOCC3)nc12 [Compound 184c] |  |  | 2 | 829 | 1270 | 24000 | 4 |  |  | 0.1 |  |
| C[C@@H](Nc1cc(F)cc(F)c1)c1cc(C(=O)NCCN(C)C)cc2ncc(N3CCOCC3)nc12 [Compound 184b] |  |  | 2 | 589 | 1100 | 20000 | 3 |  |  | 0.1 |  |
| CC(Nc1ccc(F)c(F)c1)c1cc(C(=O)NCCO)cc2ncc(N3CCOCC3)nc12 (single isomer, unassigned) [Compound 279b] | 1910 |  | > 513 | 26300 | 6460 | > 30200 | 59 |  |  |  |  |
| C[C@@H](Nc1cc(F)cc(F)c1)c1cc(C(=O)NCCN(C)C)cc2ncc(N3CCOCC3)nc12 [Compound 184a] |  |  | 2 | 806 | 1480 | 21900 | 3 |  |  |  | 0.1 |
